One assay deals with AMPA receptors. The assay can be described thus: Binding of 3H-AMPA (displacement from rat cerebra membrane material). The settings on record: displacement of 3H-AMPA, rat cerebra membranes, pH 7.1, on ice 60 minutes. The method, then: (§1) The pharmacological activity of the compounds I according to the invention was investigated on isolated membrane material from rat cerebra. To do this, the membrane material was treated in the presence of the compounds according to the invention with the radiolabeled substances ^3 H-2-amino-3-hydroxy-5-methyl-4-isoxazolepropionic acid (^3 H-AMPA) and ^3 H-5,7-dichlorokynurenic acid, these binding to specific receptors (AMPA and NMDA (N-methyl-D-aspartate) receptors respectively). Subsequently the radioactivity on the treated membranes was measured by scintillation counting. The amounts of bound ^3 H-AMPA and ^3 H-5,7-dichlorokynurenic acid, or in each case the amounts of these radiolabeled substances displaced, were determined from the bound radioactivity. The dissociation constant KI (I=inhibitor) which results from this and which is a measure of the displacing effect of the active substance according to the invention was found by iterative non-linear regression analysis using the statistical analysis system (SAS) on an IBM computer similar to the "ligand" program of P. J. Munson and D. Rodbard (Analytical Biochem., […], Ligand: Versatile Computerized Approach for Characterization of Ligand Binding Systems).
1. Binding of ^3 H-2-amino-3-hydroxy-5-methyl-4-isoxazolepropionic acid (^3 H-AMPA)
To prepare the membrane material, freshly removed rat cerebra were homogenized together with 15 times the volume of a buffer solution A composed of 30 mM α,α,α-tris(hydroxymethyl)methylamine hydrochloride (TRIS-HCl) and 0.5 mM ethylenediaminetetraacetic acid (EDTA), pH 7.4, using an Ultra-Turrax. […]
For the binding assay, the protein material was thawed at 37° C. and washed twice by centrifuging at 48,000 g (20 minutes) and subsequently suspending in a buffer solution B composed of 50 mM TRIS-HCl, 0.1M potassium thiocyanate and 2.5 mM calcium chloride, pH 7.1. […] The radioactivity of the bound ^3 H-AMPA in the membrane material was measured by scintillation counting and then the KI was determined by subjecting the displacement plots to regression analysis.
In turn, `O=C(O)c1nc2c3c(Cl)cc(Cl)cc3nc(=O)n2[nH]1` [8,10-Dichloro-1,2,4-triazolo[1,5-c]-quinazolin-5-one-2-carboxylic acid] had a Ki of 1.3 µM. On to `O=C(O)c1nc2c3ccc([N+](=O)[O-])cc3nc(=O)n2[nH]1` [8-Nitro-1,2,4-triazolo[1,5-c]-quinazolin-5-one-2-carboxylic acid], for which the Ki is 2.6 µM.

Compound `O=C(O)c1nc2c3ccc(C(F)(F)F)cc3nc(=O)n2[nH]1` [8-Trifluoromethyl-1,2,4-triazolo[1,5-c]-quinazolin-5-one-2-carboxylic acid] returned an inhibitory constant (Ki) of 1.4 µM.

The target in a further assay is T1, NMDA (N-methyl-D-aspartate) receptors (Rattus norvegicus, UniProt P35439).
T1 construct: isolated membrane material from rat cerebra; from tissue; host or cells: rat cerebrum membranes
The assay can be described thus: Binding of 3H-5,7-dichlorokynurenic acid (displacement from rat cerebra membrane material). Conditions: displacement of 3H-5,7-dichlorokynurenic acid, rat cerebra membranes, pH 7.4, on ice 30 minutes. The procedure:
as §1
2. Binding of ^3 H-5,7-dichlorokynurenic acid
To prepare the membrane material, freshly removed rat cerebra were homogenized together with about 10 times the volume of a buffer solution A composed of 50 mM TRIS-HCl and 10 mM EDTA, pH 7.4. The suspension was centrifuged at 48,000 g for 20 minutes. […]
For the binding assay, the protein material was thawed at 37° C. and washed twice by centrifuging at 48,000 g (20 minutes) and subsequently suspending in a buffer solution B composed of 50 mM TRIS-HCl, pH 7.4. […] The radioactivity of the ^3 H-5,7-dichlorokynurenic acid bound to the membranes in the sediment was measured, and the KI was obtained by subjecting the displacement plots to regression analysis.
Consider `Cc1cc2nc(=O)n3[nH]c(C(=O)O)nc3c2cc1C` [8,9-Dimethyl-1,2,4-triazolo[1,5-c]-quinazolin-5-one-2-carboxylic acid], for which the inhibition constant (Ki) was 0.09 µM. The compound `O=C(O)c1nc2c3c(Cl)cc(Cl)cc3nc(=O)n2[nH]1` [8,10-Dichloro-1,2,4-triazolo[1,5-c]-quinazolin-5-one-2-carboxylic acid] had a Ki of 0.2 µM. The compound `CCOC(=O)c1nc2c3cc(C)c(C)cc3nc(=O)n2[nH]1` [Ethyl 8,9-dimethyl-1,2,4-triazolo-[1,5-c]-quinazolin-5-one-2-carboxylate] gave a Ki of 0.16 µM.

(Values after patent publication US5612344A, “Triazoloquinazolines for the treatment of central nervous disorders” (BASF Aktiengesellschaft, priority 1992, dated 1997).)
